Patent US20240043427A1 (Gilead Sciences, Inc., priority 2020, published 2024)

Assays:
[1] = molecular target: T1, CD73 (Homo sapiens (Human), UniProt P21589); type: biochemical; conditions: 1 mM NaH2PO4 in enzyme buffer, CD73 0.3 nM, AMP 15 uM
[2] = molecular target: T1, CD73; test: MDA-MB-231 Cell Based CD73 Activity Assay (DMEM); conditions: MDA-MB-231-GFP cells, DMEM medium with 10% human plasma, 200 uM AMP

T1 sequence (P21589 27-574): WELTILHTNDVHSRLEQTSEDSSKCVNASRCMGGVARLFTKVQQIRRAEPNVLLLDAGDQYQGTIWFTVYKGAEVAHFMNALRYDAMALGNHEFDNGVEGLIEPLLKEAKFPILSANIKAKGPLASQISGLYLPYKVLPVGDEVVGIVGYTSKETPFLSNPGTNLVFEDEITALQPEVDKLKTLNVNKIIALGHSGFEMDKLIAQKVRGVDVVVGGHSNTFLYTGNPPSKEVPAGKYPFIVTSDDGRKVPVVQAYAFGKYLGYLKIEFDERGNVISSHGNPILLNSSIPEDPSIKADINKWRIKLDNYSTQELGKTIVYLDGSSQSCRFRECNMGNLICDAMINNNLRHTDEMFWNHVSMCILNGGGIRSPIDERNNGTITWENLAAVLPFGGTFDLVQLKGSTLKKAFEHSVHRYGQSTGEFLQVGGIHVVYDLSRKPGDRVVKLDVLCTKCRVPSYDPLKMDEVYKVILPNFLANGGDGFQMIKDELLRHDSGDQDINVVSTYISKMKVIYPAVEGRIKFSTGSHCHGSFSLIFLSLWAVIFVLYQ

IC50 [1]	EC50 [2]	SMILES
0.62 nM	6.56 nM	O=C(Nc1ccccc1F)OCC(F)(F)COc1cc(-c2c[nH]c(=O)[nH]c2=O)nn2ccnc12 [Example 234, 3-((6-(2,4-dioxo-1,2,3,4-tetrahydropyrimidin-5-yl)imidazo[1,2-b]pyridazin-8-yl)oxy)-2,2-difluoropropyl (2-fluorophenyl)carbamate]
0.96 nM	0.82 nM	O=C(Nc1ccc(F)cc1F)O[C@H]1CN(c2cc(-c3c[nH]c(=O)[nH]c3=O)nn3ccnc23)CC1(F)F [Example 235, (S)-1-(6-(2,4-dioxo-1,2,3,4-tetrahydropyrimidin-5-yl)imidazo[1,2-b]pyridazin-8-yl)-4,4-difluoropyrrolidin-3-yl (2,4-difluorophenyl)carbamate]
1.02 nM	3.04 nM	Cc1ccc(NC(=O)O[C@H]2CN(c3cc(-c4c[nH]c(=O)[nH]c4=O)nn4ccnc34)CC2(F)F)c(F)c1 [Example 236, (S)-1-(6-(2,4-dioxo-1,2,3,4-tetrahydropyrimidin-5-yl)imidazo[1,2-b]pyridazin-8-yl)-4,4-difluoropyrrolidin-3-yl (2-fluoro-4-methylphenyl)carbamate]
0.7 nM	1.1 nM	N#Cc1ccc(O[C@H]2CN(c3cc(-c4c[nH]c(=O)[nH]c4=O)nn4ccnc34)CC2(F)F)cc1 [Example 237, (S)-4-((1-(6-(2,4-dioxo-1,2,3,4-tetrahydropyrimidin-5-yl)imidazo[1,2-b]pyridazin-8-yl)-4,4-difluoropyrrolidin-3-yl)oxy)benzonitrile]
0.36 nM	5.18 nM	O=C(Nc1ccc(F)cc1F)OCC(F)(F)COc1cc(-c2c[nH]c(=O)[nH]c2=O)nn2ccnc12 [Example 238, 3-((6-(2,4-dioxo-1,2,3,4-tetrahydropyrimidin-5-yl)imidazo[1,2-b]pyridazin-8-yl)oxy)-2,2-difluoropropyl (2,4-difluorophenyl)carbamate]
0.86 nM	1.17 nM	O=C(Nc1c(F)cc(F)cc1F)O[C@H]1CN(c2cc(-c3c[nH]c(=O)[nH]c3=O)nn3ccnc23)CC1(F)F [Example 239, (S)-1-(6-(2,4-dioxo-1,2,3,4-tetrahydropyrimidin-5-yl)imidazo[1,2-b]pyridazin-8-yl)-4,4-difluoropyrrolidin-3-yl (2,4,6-trifluorophenyl)carbamate]
0.28 nM	3.79 nM	O=c1[nH]cc(-c2cc(N3CC[C@@H](Oc4ccc(F)cc4)C3)c3nccn3n2)c(=O)[nH]1 [Example 240, (R)-5-(8-(3-(4-fluorophenoxy)pyrrolidin-1-yl)imidazo[1,2-b]pyridazin-6-yl)pyrimidine-2,4(1H,3H)-dione]
2.13 nM	1.41 nM	O=C(Nc1ccccc1F)O[C@H]1CN(c2cc(-c3c[nH]c(=O)[nH]c3=O)nn3ccnc23)CC1(F)F [Example 241, (S)-1-(6-(2,4-dioxo-1,2,3,4-tetrahydropyrimidin-5-yl)imidazo[1,2-b]pyridazin-8-yl)-4,4-difluoropyrrolidin-3-yl (2-fluorophenyl)carbamate]
0.22 nM	2.43 nM	O=c1[nH]cc(-c2cc(N3CCC(Oc4ccccc4)C3)c3nccn3n2)c(=O)[nH]1 (stereo not drawn) [Example 242, 5-(8-(3-phenoxypyrrolidin-1-yl)imidazo[1,2-b]pyridazin-6-yl)pyrimidine-2,4(1H,3H)-dione]
22.2 nM	56.1 nM	CC1(O)CCN(c2cc(-c3c[nH]c(=O)[nH]c3=O)nn3ccnc23)C1 (stereo not drawn) [Example 243, 5-(8-(3-hydroxy-3-methylpyrrolidin-1-yl)imidazo[1,2-b]pyridazin-6-yl)pyrimidine-2,4(1H,3H)-dione]
108 nM	574 nM	O=c1[nH]cc(-c2cc(N3CC(F)(C(F)(F)F)C3)n3nccc3n2)c(=O)[nH]1 [Example 244, 5-(7-(3-fluoro-3-(trifluoromethyl)azetidin-1-yl)pyrazolo[1,5-a]pyrimidin-5-yl)pyrimidine-2,4(1H,3H)-dione]
170 nM	747 nM	CC(=O)NC1CCN(c2cc(-c3c[nH]c(=O)[nH]c3=O)nc3ccnn23)C1 (stereo not drawn) [Example 245, N-(1-(5-(2,4-dioxo-1,2,3,4-tetrahydropyrimidin-5-yl)pyrazolo[1,5-a]pyrimidin-7-yl)pyrrolidin-3-yl)acetamide]
168 nM	213 nM	CC1(O)CCN(c2cc(-c3c[nH]c(=O)[nH]c3=O)nc3ccnn23)C1 (stereo not drawn) [Example 246, 5-(7-(3-hydroxy-3-methylpyrrolidin-1-yl)pyrazolo[1,5-a]pyrimidin-5-yl)pyrimidine-2,4(1H,3H)-dione]
41.9 nM	93.6 nM	N#Cc1ccc(C2CN(c3cc(-c4c[nH]c(=O)[nH]c4=O)nn4ccnc34)C2)cc1 [Example 247, 4-(1-(6-(2,4-dioxo-1,2,3,4-tetrahydropyrimidin-5-yl)imidazo[1,2-b]pyridazin-8-yl)azetidin-3-yl)benzonitrile]
46.1 nM	249 nM	O=c1[nH]cc(-c2cc(N3CCC(c4cccc(C(F)(F)F)c4)C3)c3nccn3n2)c(=O)[nH]1 (stereo not drawn) [Example 249, 5-(8-(3-(3-(trifluoromethyl)phenyl)pyrrolidin-1-yl)imidazo[1,2-b]pyridazin-6-yl)pyrimidine-2,4(1H,3H)-dione]
110 nM	687 nM	O=c1[nH]cc(-c2cc(N3CCC(c4ccccc4C(F)(F)F)C3)c3nccn3n2)c(=O)[nH]1 (stereo not drawn) [Example 250, 5-(8-(3-(2-(trifluoromethyl)phenyl)pyrrolidin-1-yl)imidazo[1,2-b]pyridazin-6-yl)pyrimidine-2,4(1H,3H)-dione]
17.6 nM	125 nM	COc1ccc(C2CN(c3cc(-c4c[nH]c(=O)[nH]c4=O)nn4ccnc34)C2)cc1 [Example 251, 5-(8-(3-(4-methoxyphenyl)azetidin-1-yl)imidazo[1,2-b]pyridazin-6-yl)pyrimidine-2,4(1H,3H)-dione]
174 nM	1240 nM	O=c1[nH]cc(-c2cc(N3CC(c4ccc(OC(F)(F)F)cc4)C3)c3nccn3n2)c(=O)[nH]1 [Example 252, 5-(8-(3-(4-(trifluoromethoxy)phenyl)azetidin-1-yl)imidazo[1,2-b]pyridazin-6-yl)pyrimidine-2,4(1H,3H)-dione]
20 nM	160 nM	O=c1[nH]cc(-c2cc(N3CCC(F)(c4ccccc4)C3)c3nccn3n2)c(=O)[nH]1 (stereo not drawn) [Example 253, 5-(8-(3-fluoro-3-phenylpyrrolidin-1-yl)imidazo[1,2-b]pyridazin-6-yl)pyrimidine-2,4(1H,3H)-dione]
26.6 nM	136 nM	O=c1[nH]cc(-c2cc(N3CCC4CC43)c3nccn3n2)c(=O)[nH]1 (stereo not drawn) [Example 254, 5-(8-(2-azabicyclo[3.1.0]hexan-2-yl)imidazo[1,2-b]pyridazin-6-yl)pyrimidine-2,4(1H,3H)-dione]
17.5 nM	113 nM	O=c1[nH]cc(-c2cc(N3CCC(F)(c4ccc(F)cc4)C3)c3nccn3n2)c(=O)[nH]1 (stereo not drawn) [Example 255, 5-(8-(3-fluoro-3-(4-fluorophenyl)pyrrolidin-1-yl)imidazo[1,2-b]pyridazin-6-yl)pyrimidine-2,4(1H,3H)-dione]
43.1 nM	185 nM	O=c1[nH]cc(-c2cc(N3CCC(F)(c4ccc(C(F)(F)F)cc4)C3)c3nccn3n2)c(=O)[nH]1 (stereo not drawn) [Example 256, 5-(8-(3-fluoro-3-(4-(trifluoromethyl)phenyl)pyrrolidin-1-yl)imidazo[1,2-b]pyridazin-6-yl)pyrimidine-2,4(1H,3H)-dione]
51.7 nM	103 nM	O=c1[nH]cc(-c2cc(N3CCC4CCC43)c3nccn3n2)c(=O)[nH]1 (stereo not drawn) [Example 257, 5-(8-(2-azabicyclo[3.2.0]heptan-2-yl)imidazo[1,2-b]pyridazin-6-yl)pyrimidine-2,4(1H,3H)-dione]
52.4 nM	106 nM	O=c1[nH]cc(-c2cc(N3CC(c4ccc(F)cc4)C3)c3nccn3n2)c(=O)[nH]1 [Example 258, 5-(8-(3-(4-fluorophenyl)azetidin-1-yl)imidazo[1,2-b]pyridazin-6-yl)pyrimidine-2,4(1H,3H)-dione]
14.7 nM	80.7 nM	O=c1[nH]cc(-c2cc(N3CC(F)(c4ccccc4)C3)c3nccn3n2)c(=O)[nH]1 [Example 259, 5-(8-(3-fluoro-3-phenylazetidin-1-yl)imidazo[1,2-b]pyridazin-6-yl)pyrimidine-2,4(1H,3H)-dione]
> 250 nM	963 nM	O=c1[nH]cc(-c2cc(N3CCC4(CC4)C(F)(F)C3)c3nccn3n2)c(=O)[nH]1 [Example 260, 5-(8-(4,4-difluoro-6-azaspiro[2.5]octan-6-yl)imidazo[1,2-b]pyridazin-6-yl)pyrimidine-2,4(1H,3H)-dione]
13.9 nM	139 nM	COC(=O)c1ccc(C2CN(c3cc(-c4c[nH]c(=O)[nH]c4=O)nn4ccnc34)C2)cc1 [Example 261, Methyl 4-(1-(6-(2,4-dioxo-1,2,3,4-tetrahydropyrimidin-5-yl)imidazo[1,2-b]pyridazin-8-yl)azetidin-3-yl)benzoate]
73.4 nM	565 nM	O=c1[nH]cc(-c2cc(N3CCC(c4ccc(C(F)(F)F)cc4)C3)c3ncc(F)n3n2)c(=O)[nH]1 (stereo not drawn) [Example 262, 5-(3-fluoro-8-(3-(4-(trifluoromethyl)phenyl)pyrrolidin-1-yl)imidazo[1,2-b]pyridazin-6-yl)pyrimidine-2,4(1H,3H)-dione]
10.7 nM	31.4 nM	COC(=O)c1cccc(C2CN(c3cc(-c4c[nH]c(=O)[nH]c4=O)nn4ccnc34)C2)c1 [Example 263, Methyl 3-(1-(6-(2,4-dioxo-1,2,3,4-tetrahydropyrimidin-5-yl)imidazo[1,2-b]pyridazin-8-yl)azetidin-3-yl)benzoate]

SMILES	IC50 [1]	EC50 [2]
O=c1[nH]cc(-c2cc(N3CCC(c4ccc(C(F)(F)F)cc4)C3)c3nccn3n2)c(=O)[nH]1 (stereo not drawn) [Example 248, 5-(8-(3-(4-(trifluoromethyl)phenyl)pyrrolidin-1-yl)imidazo[1,2-b]pyridazin-6-yl)pyrimidine-2,4(1H,3H)-dione]	15.1 nM	36.3 nM
